These results are taken from patent US9708359B2, “Pyrrolopyrimidine nucleosides and analogs thereof” (Chimerix, Inc., priority 2015, dated 2017).

A word on the pEC50: it is the negative decadic logarithm of the EC50, by convention in mol/L. Usually CC50 stands for the concentration at which the toxic effect on the cells reaches its halfway point.

For one data set, the system named is AdV. As to the kind of experiment: microbe, parasite or virus in culture. As to conditions: unidentified adenovirus, A549 cells. Type of data set: cell-based.
The subject of the next data set is ENTV-71. The data set can be described thus: microbe, parasite or virus in culture. As to conditions: Enterovirus, Vero 76; ENTV-71, Vero76 cells. Type of data set: cell-based.
The test system of the next data set is HCV. As to the kind of experiment: microbe, parasite or virus in culture. Type of data set: cell-based. As to conditions: Hepatitis C virus, Huh 7 cells. How it is done: Luciferase reporter (Replicon)/CytoTox-1 (Toxicity). Compounds were screened for anti-HCV activity using a luciferase (Luc) reporter gene endpoint in the HCV primary assay. The Luc reporter was used as an indirect measure of HCV replication as its activity is directly proportional to HCV RNA levels. Assessment of cytotoxicity is conducted in parallel. Drug stocks were prepared in DMSO unless otherwise specified and were diluted with tissue culture medium to the desired high-test concentration. For each assay, the compounds were then further diluted in tissue culture medium as required. After incubation, the cells were processed to derive, where applicable, EC50 and EC90 (compound concentration reducing replicon replication by 50% and 90% respectively). […] Anti-HCV activity was assessed with the replicon (genotype 1b or 2a) or HCVcc virus-derived Luc activity as readout; whereas the cytotoxic concentrations of drug reducing cell numbers was assessed by the CytoTox-1 cell proliferation assay according to manufacturer's protocol. […]
Luciferase reporter (Replicon)/CytoTox-1 (Toxicity). […] Anti-HCV activity was assessed with the replicon (genotype 1b or 2a) or HCVcc virus-derived Luc activity as readout; whereas the cytotoxic concentrations of drug reducing cell numbers was assessed by the CytoTox-1 cell proliferation assay (Promega, Madison, Wis.) according to manufacturer's protocol. […]

The nature of data set [1]: Cytotoxicity in lymphocyte assays, MOLT-3 cells. It is filed as cell-based. As to conditions: human, parallel to HHV-6B assay. How it is done:
Every antiviral assay included a parallel cytotoxicity assay with the same cells used for each virus, the same cell number, the same drug concentrations, and the same incubation times to provide the same drug exposure. To ensure that the cytotoxicity of all compounds could be compared directly, a standard neutral red uptake cytotoxicity assay for all compounds in confluent HFF cells with a 7 d incubation period was performed.
Cytotoxicity in Lymphocyte Assays:
Cell viability in all assays with lymphocytes was assessed with a luminescent Cell Viability Assay. Briefly, assay plates were incubated at ambient temperature for 30 min then luminescent reagent was added to each well and the plates were mixed to lyse the cells. Plates were then incubated for at ambient temperature and the luminescence was quantified on a luminometer. Standard methods were used to calculate drug concentrations that inhibited the proliferation of cells by 50% (CC50).
Cell viability in all assays with lymphocytes was assessed with the CellTiter-Glo Luminescent Cell Viability Assay (Promega). […] Plates were then incubated for an additional 10 min at ambient temperature and the luminescence was quantified on a luminometer. […]

Data set [2] relates to murine norovirus (MNV) CR3. The data set can be described thus: Study No. 1: efficacy against Murine Norovirus infection in mice. It is filed as in vivo, BALB/c mice. As to conditions: for murine norovirus titer in tissue and feces: 30, 100, 300 mg/kg/day BID oral gavage from day −2, 10^6 PFU, day 3 post-infection. How it is done:
Study No. 1 evaluated the efficacy of twice-daily dosing of Compound 1 over a range of 30 mg/kg to 300 mg/kg, initiated prior to infection of mice with 10^6 plaque-forming units (PFU) of murine norovirus (MNV) CR3. A control group of mice treated with vehicle was also included. All doses were started 2 days (39 hours) prior to infection.
Compound was delivered twice daily at indicated doses via oral gavage. A control group of mice treated with vehicle only was also included. Mice were infected with murine norovirus by pipetting virus into mouth 2 days after the first dose. Mice were housed on metal grates and combined fecal output was collected every 24 hours. Tissues (distal ileum and cecum) and individual fecal pellets were harvested on day 3 post inoculation. All samples were titered by plaque assay.
For both studies, compound was delivered via oral gavage at the indicated doses and times prior to infection. Mice were infected with murine norovirus CR3 by pipetting virus into mouth 3 hours after the first day 0 dose of Compound 1 was given. Following infection, compound was administered twice daily through day 3 post-infection.
The mice used were ˜20 gram, 8-12 week old female BALB/c mice in groups of 5. Mice were housed on metal grates and combined fecal output was collected every 24 hours, starting at day −1. Tissues (˜1 cm of distal ileum and cecum) and individual fecal pellets were harvested on day 3 post-infection and weighed. All samples were titered by plaque assay (qRT-PCR as back-up when titers are too low); titers were normalized to gram of tissue or feces. On day 3, duplicate samples of tissue (˜1 cm of distal ileum and cecum) were collected, rinsed in PBS, and snap frozen; serum and a duplicate feces sample were also collected on day 3 and snap frozen; this set of sample was submitted for MS analysis to assess drug bioavailability.

pEC50: −log10 of the molar value. Entries after “also recorded” stand apart in the source; their conditions may differ. Some results are limits rather than exact numbers.

Regarding `Cc1nc(N)c2c(C(N)=O)cn([C@@H]3O[C@H](CO)[C@@H](O)[C@H]3O)c2n1` [Compound 1, 4-amino-7-((2R,3R,4S,5R)-3,4-dihydroxy-5-(hydroxymethyl)tetrahydrofuran-2-yl)-2-methyl-7H-pyrrolo[2,3-d]pyrimidine-5-carboxamide], the pEC50 in the data set with AdV was < 4.00; in the data set with ENTV-71 it was < 4.00; in the data set with HCV, 4.74. Half-maximal cytotoxicity in data set [1] (CC50) was put at 44.7 µM. The “murine norovirus titer in tissue and feces” value is “effective in reducing the titer of murine norovirus in both tissue and feces” in data set [2]; “reduce the viral load in mice infected with murine norovirus in a dose-dependent manner; also recorded: showed a reduction in PFU/gram with increasing dose” in data set [2] (listed as compound 1). For the same molecule, the “virus titer in tissue and feces compared with vehicle” value in data set [2] (twice-daily 300 mg/kg) is recorded as “significant reduction in virus titer”.
